Test results as given in patent US11939303B2, “Sulfamate derivatives of 4-(1-phenyl-1H-[1,2,3]triazol-4-yl)-phenol, derivatives of 4-(1-phenyl-1H-[1,2,3]triazol-4-yl)-phenol, their medical use and the method of obtaining 4-(1-phenyl-1H-[1,2,3]triazol-4-yl)-phenyl sulfamate derivatives” (POLITECHNIKA GDANSKA, priority 2018, dated 2024).

Biological target: T1, STS steroid sulfatase enzyme isolated from a human placenta (Homo sapiens, UniProt P08842)
T1 construct: human placenta was stripped from membranes and homogenized in ice-cold Tris-HCl buffer pH 7.4; from tissue; host or cells: human placenta
T1 sequence (P08842 22-583): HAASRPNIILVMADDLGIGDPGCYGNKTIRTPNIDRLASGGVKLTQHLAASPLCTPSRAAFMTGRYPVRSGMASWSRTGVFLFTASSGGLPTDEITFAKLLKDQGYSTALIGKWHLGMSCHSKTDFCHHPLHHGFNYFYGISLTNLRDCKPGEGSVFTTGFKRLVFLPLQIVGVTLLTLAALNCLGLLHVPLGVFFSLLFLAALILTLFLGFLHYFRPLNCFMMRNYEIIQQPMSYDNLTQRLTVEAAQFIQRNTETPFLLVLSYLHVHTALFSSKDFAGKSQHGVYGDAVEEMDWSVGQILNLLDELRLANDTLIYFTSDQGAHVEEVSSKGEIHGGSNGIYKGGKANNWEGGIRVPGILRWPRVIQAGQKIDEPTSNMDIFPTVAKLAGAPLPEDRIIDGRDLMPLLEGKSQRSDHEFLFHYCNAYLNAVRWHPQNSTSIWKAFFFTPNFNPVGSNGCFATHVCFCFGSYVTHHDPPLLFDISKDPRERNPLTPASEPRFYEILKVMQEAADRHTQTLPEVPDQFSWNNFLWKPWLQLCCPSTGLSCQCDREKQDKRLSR
Experiment: STS steroid sulfatase enzymatic assay with nitrophenyl sulfate (NPS)
Assay type: biochemical
Settings: NPS substrate, pH 7.25, 60 minutes, p-nitrophenol at 405 nm, read-out: IC50 (ability to inhibit steroid sulfatase activity)
Procedure: The medical and biological activity of the compounds defined the general formula 1, for use as active compounds—medicament—drugs and/or as STS steroid sulfatase inhibitors, diagnostic agent and biological use were evaluated using the STS steroid sulfatase enzyme isolated from a human placenta according to the following procedure: • human placenta was stripped from membranes and homogenized in ice-cold Tris-HCl buffer pH 7.4 containing 0.1% Triton X-100 and 0.02% NaN3. • the homogenate was alternately frozen and thawed a few times and then centrifuged at 100000 g for 60 min, • the supernatant was removed and the same procedure from homogenization to centrifugation was carried out 5 times, • finally, the enzyme was purified by three-step chromatography using columns: DEAE-cellulose, Con A-Sepharose and Bio-Gel A-1.5 and appropriate buffers. All steps were carried out at 4° C. The biological, diagnostics and medical activity of STS inhibitors, for the compounds defined by the general formula 1, were evaluated by analyzing the progress of the enzymatic reaction using nitrophenyl sulfate (NPS). The final volume of the reaction mixture was 120 μL (pH=7.25) and contained 0.8 μmol NPS, 40 μmol Tris HCl and the appropriate amount of enzyme. After 60 minutes of reaction time, 0.5 mL of 1M NaOH was added to the reaction mixture. Released p nitrophenol was determined using a spectrophotometer at 405 nm. In the final step, the IC50 parameter values (characterizing the ability of obtained compounds to inhibit steroid sulfatase activity) were determined. […] Therefore, the compounds of the general formula 1 have biological, medical and diagnostic activity, and have medical applications for use as a medicament a well as in diagnostics for use as a diagnostic agent. It has been confirmed that the new compounds with general formula 1, as one of the possible mechanisms of medical and biological action, show a strong STS inhibitory activity at low micromolar or nanomolar concentrations, which is sufficient for the compounds to act as drugs classified as steroid sulfatase inhibitors or as compounds for use as steroid sulfatase inhibitors in diagnostic tests, in vitro clinical trials and its use in biological sciences. In particular, the compounds of the general formula 1 are for use as medicaments—useful as drugs in cancer therapy and in particular in the therapy of hormone-dependent cancers of animals, in particular mammals, including humans.

IC50 [nM] | SMILES
180 | NS(=O)(=O)Oc1ccc(-c2cn(-c3cccc(C(F)(F)F)c3)nn2)cc1 [4-[1-(3-trifluoromethyl-phenyl)-1H-[1,2,3]-triazol-4-yl]-phenyl sulfamate]
36 | NS(=O)(=O)Oc1ccc(-c2cn(-c3cc(F)cc(F)c3)nn2)cc1 [4-[1-(3,5-difluoro-phenyl)-1H-[1,2,3]-triazol-4-yl]-phenyl sulfamate]
821 | NS(=O)(=O)Oc1ccc(-c2cn(-c3cc(C(F)(F)F)cc(C(F)(F)F)c3)nn2)cc1 [4-[1-(3,5-Bis-trifluoromethyl-phenyl)-1H-[1,2,3]triazol-4-yl]-phenyl sulfamate]
240 | NS(=O)(=O)Oc1ccc(-c2cn(-c3ccc(OC(F)(F)F)cc3)nn2)cc1 [4-[1-(4-trifluoromethoxy-phenyl)-1H-[1,2,3]-triazol-4-yl]-phenyl sulfamate]
